How the values were obtained:
[1] = Intrinsic clearance in human microsomes; assay type: ADME, Microsome
[2] = target: Collagenase 3 (Homo sapiens, UniProt P45452); experiment: Inhibition of recombinant human MMP13 using Mca-Pro-cyclohexyl-Ala-Gly-Nva-His-Ala- Dap(Dnp)-NH2 as substrate by fluorometric analysis; details: read-out: pIC50 (converted)
[3] = target: 72 kDa type IV collagenase (Homo sapiens, UniProt P08253); experiment: Inhibition of MMP2 using Mca-Pro-cyclohexyl-Ala-Gly-Nva-His-Ala- Dap(Dnp)-NH2 as substrate by fluorometric analysis; details: read-out: pIC50 (converted)
[4] = target: MMP-2/MMP-13 (Homo sapiens) (UniProt P08253+P45452); experiment: Selectivity ratio of pIC50 for MMP2 to pIC50 for recombinant human MMP13
[5] = Oral bioavailability in rat; assay type: ADME, organism-based; details: in vivo
[6] = Apparent permeability across apical to basolateral side in human Caco2 cells at 10 uM; assay type: ADME, cell-based; details: Caco-2
[7] = Apparent permeability across basolateral to apical side in human Caco2 cells at 10 uM; assay type: ADME, cell-based; details: Caco-2
[8] = target: Matrix metalloproteinase-9 (Homo sapiens, UniProt P14780); experiment: Inhibition of MMP9 using Mca-Pro-cyclohexyl-Ala-Gly-Nva-His-Ala- Dap(Dnp)-NH2 as substrate by fluorometric analysis; details: read-out: pIC50 (converted)
[9] = target: Macrophage metalloelastase (Homo sapiens, UniProt P39900); experiment: Inhibition of MMP12 using Mca-Pro-cyclohexyl-Ala-Gly-Nva-His-Ala- Dap(Dnp)-NH2 as substrate by fluorometric analysis; details: read-out: pIC50 (converted)
[10] = target: Matrix metalloproteinase-14 (Homo sapiens, UniProt P50281); experiment: Inhibition of MMP14 using Mca-Pro-cyclohexyl-Ala-Gly-Nva-His-Ala- Dap(Dnp)-NH2 as substrate by fluorometric analysis; details: read-out: pIC50 (converted)
[11] = Intrinsic clearance in Sprague-Dawley rat hepatocytes assessed per 10^6 cells; assay type: ADME, cell-based, Hepatocyte; details: Sprague-Dawley, read-out: CLH

Chain of 72 kDa type IV collagenase (P08253 whole entry): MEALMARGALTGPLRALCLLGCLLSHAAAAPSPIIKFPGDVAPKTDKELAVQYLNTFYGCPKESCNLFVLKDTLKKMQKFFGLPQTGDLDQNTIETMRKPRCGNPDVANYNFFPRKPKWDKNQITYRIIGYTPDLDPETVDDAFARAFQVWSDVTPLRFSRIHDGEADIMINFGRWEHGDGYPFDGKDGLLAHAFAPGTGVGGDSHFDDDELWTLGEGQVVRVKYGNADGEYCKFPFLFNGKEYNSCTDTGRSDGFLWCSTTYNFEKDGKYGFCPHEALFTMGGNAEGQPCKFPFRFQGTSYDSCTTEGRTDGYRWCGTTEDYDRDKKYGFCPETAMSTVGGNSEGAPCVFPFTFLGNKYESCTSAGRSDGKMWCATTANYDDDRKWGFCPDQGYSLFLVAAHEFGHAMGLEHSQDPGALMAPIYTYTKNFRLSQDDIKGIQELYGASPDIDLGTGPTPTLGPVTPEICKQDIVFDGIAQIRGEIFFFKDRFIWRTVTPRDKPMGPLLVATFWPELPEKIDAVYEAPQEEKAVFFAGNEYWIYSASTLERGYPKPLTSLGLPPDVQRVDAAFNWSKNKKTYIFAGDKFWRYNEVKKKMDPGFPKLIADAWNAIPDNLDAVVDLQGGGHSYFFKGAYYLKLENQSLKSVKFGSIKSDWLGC
Chain of Macrophage metalloelastase (P39900 whole entry): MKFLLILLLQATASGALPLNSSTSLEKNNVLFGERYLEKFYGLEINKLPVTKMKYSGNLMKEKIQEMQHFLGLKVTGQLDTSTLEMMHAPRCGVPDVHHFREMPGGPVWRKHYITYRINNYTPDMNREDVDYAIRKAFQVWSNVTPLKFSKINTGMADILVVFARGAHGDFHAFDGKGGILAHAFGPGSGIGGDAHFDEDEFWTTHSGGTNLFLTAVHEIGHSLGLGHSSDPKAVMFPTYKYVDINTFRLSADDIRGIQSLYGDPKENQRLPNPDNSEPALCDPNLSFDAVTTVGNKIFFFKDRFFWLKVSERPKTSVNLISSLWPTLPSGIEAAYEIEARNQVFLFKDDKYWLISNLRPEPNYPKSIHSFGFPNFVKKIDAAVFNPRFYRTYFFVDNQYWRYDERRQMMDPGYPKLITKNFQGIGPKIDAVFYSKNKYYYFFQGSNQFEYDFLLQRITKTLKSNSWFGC
Chain of Matrix metalloproteinase-9 (P14780 whole entry): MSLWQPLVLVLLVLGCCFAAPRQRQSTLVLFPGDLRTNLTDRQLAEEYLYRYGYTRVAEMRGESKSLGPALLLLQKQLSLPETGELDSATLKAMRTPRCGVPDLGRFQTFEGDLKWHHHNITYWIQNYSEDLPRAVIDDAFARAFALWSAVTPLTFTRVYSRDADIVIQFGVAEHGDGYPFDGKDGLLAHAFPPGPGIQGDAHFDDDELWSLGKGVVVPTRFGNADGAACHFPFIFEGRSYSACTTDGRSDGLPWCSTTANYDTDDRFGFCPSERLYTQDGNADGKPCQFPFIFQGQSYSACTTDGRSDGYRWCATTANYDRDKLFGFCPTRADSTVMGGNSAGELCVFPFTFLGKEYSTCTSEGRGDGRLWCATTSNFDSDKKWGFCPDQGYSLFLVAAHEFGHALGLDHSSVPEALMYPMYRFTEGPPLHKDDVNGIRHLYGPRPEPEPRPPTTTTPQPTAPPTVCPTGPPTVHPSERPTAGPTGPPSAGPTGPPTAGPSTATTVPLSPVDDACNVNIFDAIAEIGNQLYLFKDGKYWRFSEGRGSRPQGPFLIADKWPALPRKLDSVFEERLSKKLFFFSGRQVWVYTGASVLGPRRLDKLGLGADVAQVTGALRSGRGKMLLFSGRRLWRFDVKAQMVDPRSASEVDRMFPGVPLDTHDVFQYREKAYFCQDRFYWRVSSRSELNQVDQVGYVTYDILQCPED
Chain of MMP-2/MMP-13 (Homo sapiens) (P08253 whole entry, looked up, other chains not shown): as the sequence (P08253 whole entry) above

Row | SMILES | microsomal CLint [1] [µL/min/mg] | IC50 [2] [nM] | IC50 [3] [nM] | also measured
1 | COc1cc(CNC(=O)c2ccc(Oc3ccc(C#C[C@]4(O)CN5CCC4CC5)cc3)cc2)cc(OC)c1 | 4.8 | 50.1 | 7940 | –
2 | CN(C)C(=O)c1ccc(Oc2ccc(C#C[C@]3(O)CN4CCC3CC4)cc2)cc1 | – | 1580 | – | –
3 | CS(=O)(=O)c1cccc(CNC(=O)c2ccc(Oc3ccc(C#C[C@]4(O)CN5CCC4CC5)cc3)cc2)c1 | 12.5 | 31.6 | 7940 | –
4 | CONC(=O)c1ccc(Oc2ccc(C#C[C@]3(O)CN4CCC3CC4)cc2)cc1 | – | 2510 | – | –
5 | CC[C@@H](C)NC(=O)c1ccc(Oc2ccc(C#C[C@]3(O)CN4CCC3CC4)cc2)cc1 | 8.9 | 50.1 | 6310 | –
6 | COc1ccc(CNC(=O)c2ccc(Oc3ccc(C#C[C@]4(O)CN5CCC4CC5)cc3)cc2)nc1 | 5.6 | 31.6 | > 10000 | Ratio pIC50 [4]: > 300
7 | CC(C)NC(=O)c1ccc(Oc2ccc(C#C[C@]3(O)CN4CCC3CC4)cc2)cc1 | – | 100 | > 10000 | –
8 | O=C(NCc1ccccc1)c1ccc(Oc2ccc(C#C[C@]3(O)CN4CCC3CC4)cc2)cc1 | < 2 | 63.1 | 7940 | –
9 | CCOC(=O)c1ccc(Oc2ccc(C#C[C@]3(O)CN4CCC3CC4)cc2)cc1 | – | 1000 | – | –
10 | CNS(=O)(=O)c1ccc(Oc2ccc(C#C[C@]3(O)CN4CCC3CC4)cc2)cc1 | – | 100 | – | –
11 | CS(=O)(=O)Nc1ccc(Oc2ccc(C#C[C@]3(O)CN4CCC3CC4)cc2)cc1 | – | 2510 | – | –
12 | N#Cc1cccc(CNC(=O)c2ccc(Oc3ccc(C#C[C@]4(O)CN5CCC4CC5)cc3)cc2)c1 | 9.9 | 63.1 | > 10000 | –
13 | COc1ccc(CNC(=O)c2ccc(Oc3ccc(C#C[C@]4(O)CN5CCC4CC5)cc3)cc2)c(OC)c1 | 16.1 | 39.8 | 6310 | –
14 | CN(Cc1ccncc1)C(=O)c1ccc(Oc2ccc(C#C[C@]3(O)CN4CCC3CC4)cc2)cc1 | – | 251 | > 10000 | –
15 | OCc1ccc(Oc2ccc(C#C[C@]3(O)CN4CCC3CC4)cc2)cc1 | – | > 10000 | – | –
16 | O=C(NCc1ccnc2ccccc12)c1ccc(Oc2ccc(C#C[C@]3(O)CN4CCC3CC4)cc2)cc1 | 26.1 | 20 | 2000 | –
17 | Cc1cc(CN(C)C(=O)c2ccc(Oc3ccc(C#C[C@]4(O)CN5CCC4CC5)cc3)cc2)on1 | 2.7 | 79.4 | 7940 | bioavailability [5]: 3%; Papp A→B at 10 µM [6]: 8.2 ×10⁻⁶ cm/s; Papp B→A at 10 µM [7]: 53 ×10⁻⁶ cm/s
18 | CNC(=O)N1CCC(NC(=O)c2ccc(Oc3ccc(C#C[C@]4(O)CN5CCC4CC5)cc3)cc2)CC1 | < 2 | 50.1 | 3980 | IC50 [8]: > 10000 nM; IC50 [9]: > 10000 nM; IC50 [10]: > 10000 nM
19 | O=C(NC1CCS(=O)(=O)C1)c1ccc(Oc2ccc(C#C[C@]3(O)CN4CCC3CC4)cc2)cc1 (stereo partly specified) | < 2 | 79.4 | 7940 | IC50 [8]: > 10000 nM; hepatocyte CLint [11]: < 2 µL/min/1e6 cells; IC50 [9]: > 10000 nM; IC50 [10]: > 10000 nM

Row | SMILES | microsomal CLint [1] [µL/min/mg] | IC50 [2] [nM] | IC50 [3] [nM] | also measured
20 | O=C(NC1CCCCC1)c1ccc(Oc2ccc(C#C[C@]3(O)CN4CCC3CC4)cc2)cc1 | 2.9 | 25.1 | > 10000 | –
21 | NC(=O)c1ccc(Oc2ccc(C#C[C@]3(O)CN4CCC3CC4)cc2)cc1 | – | 631 | – | –
22 | COc1ccc(CNC(=O)c2ccc(Oc3ccc(C#C[C@]4(O)CN5CCC4CC5)cc3)cc2)cc1OC | 2.7 | 10 | 1260 | –
23 | COc1cccc(CNC(=O)c2ccc(Oc3ccc(C#C[C@]4(O)CN5CCC4CC5)cc3)cc2)c1 | 10.9 | 79.4 | > 10000 | –
24 | C[C@@H](NC(=O)c1ccc(Oc2ccc(C#C[C@]3(O)CN4CCC3CC4)cc2)cc1)c1ccncc1 | 18.8 | 12.6 | 3980 | Ratio pIC50 [4]: > 300
25 | O=C(NC1CCS(=O)(=O)CC1)c1ccc(Oc2ccc(C#C[C@]3(O)CN4CCC3CC4)cc2)cc1 | 2.5 | 100 | > 10000 | IC50 [8]: > 10000 nM; IC50 [9]: > 10000 nM; IC50 [10]: > 10000 nM
26 | C[S+]([O-])c1ccc(Oc2ccc(C#C[C@]3(O)CN4CCC3CC4)cc2)cc1 (stereo partly specified) | – | 398 | – | –
27 | CS(=O)(=O)N1CCC(NC(=O)c2ccc(Oc3ccc(C#C[C@]4(O)CN5CCC4CC5)cc3)cc2)CC1 | 2.9 | 50.1 | 7940 | IC50 [8]: > 10000 nM; hepatocyte CLint [11]: < 2 µL/min/1e6 cells; IC50 [9]: > 10000 nM; IC50 [10]: > 10000 nM
28 | O=C(O)c1ccc(Oc2ccc(C#C[C@]3(O)CN4CCC3CC4)cc2)cc1 | – | 5010 | – | –
29 | O=C(NC1CCN(C2CC2)CC1)c1ccc(Oc2ccc(C#C[C@]3(O)CN4CCC3CC4)cc2)cc1 | 4.7 | 79.4 | 7940 | IC50 [8]: > 10000 nM; IC50 [9]: > 10000 nM; IC50 [10]: > 10000 nM
30 | O=C(NCC1CCCCC1)c1ccc(Oc2ccc(C#C[C@]3(O)CN4CCC3CC4)cc2)cc1 | – | 100 | 5010 | –
31 | CC(=O)Nc1ccc(Oc2ccc(C#C[C@]3(O)CN4CCC3CC4)cc2)cc1 | – | > 10000 | – | –
32 | CC(=O)N1CCC(NC(=O)c2ccc(Oc3ccc(C#C[C@]4(O)CN5CCC4CC5)cc3)cc2)CC1 | 2.5 | 39.8 | 5010 | IC50 [8]: > 10000 nM; hepatocyte CLint [11]: < 2 µL/min/1e6 cells; IC50 [9]: > 10000 nM; IC50 [10]: > 10000 nM
33 | O=C(NCc1ccc(F)cc1)c1ccc(Oc2ccc(C#C[C@]3(O)CN4CCC3CC4)cc2)cc1 | – | 100 | 6310 | –
34 | O=C(NCc1ccncc1)c1ccc(Oc2ccc(C#C[C@]3(O)CN4CCC3CC4)cc2)cc1 | 10.2 | – | 6310 | –
35 | CS(=O)(=O)c1ccc(Oc2ccc(C#C[C@]3(O)CN4CCC3CC4)cc2)cc1 | – | 316 | – | –
36 | O=C(NC1CCN(C(=O)C2CC2)CC1)c1ccc(Oc2ccc(C#C[C@]3(O)CN4CCC3CC4)cc2)cc1 | 3.7 | 25.1 | 6310 | IC50 [8]: > 10000 nM; IC50 [9]: > 10000 nM; IC50 [10]: > 10000 nM
37 | CS(=O)(=O)Oc1cccc(CNC(=O)c2ccc(Oc3ccc(C#C[C@]4(O)CN5CCC4CC5)cc3)cc2)c1 | 8.6 | 63.1 | 7940 | –
38 | O=C(Nc1ccccn1)c1ccc(Oc2ccc(C#C[C@]3(O)CN4CCC3CC4)cc2)cc1 | < 2 | 316 | > 10000 | –

— ChEMBL document CHEMBL1938343, “Lead optimisation of selective non-zinc binding inhibitors of MMP13. Part 2” (Bioorg Med Chem Lett, 2012)
